According to US5840684A, “Glycopeptide antibiotic derivatives” (Eli Lilly and Company, priority 1995, dated 1998):
Values after ≈ are worked out from the molar mass of the structure shown.

Key:
[1] = tested on: Staphylococcus aureus S13E; format: cell-based
Protocol: (§1) The MIC's were determined using a standard broth micro-dilution assay.

[2] = tested on: Staphylococcus aureus SA1199B; format: cell-based
Protocol: as §1

[3] = tested on: Entercoccus faecium 180-1; assay: broth micro-dilution MIC; format: cell-based
Protocol: as §1

Entercoccus faecium 276 = assay: broth micro-dilution MIC; format: cell-based
Protocol: as §1

[4] = tested on: Staphylococcus aureus 446; assay: broth micro-dilution MIC; format: cell-based
Protocol: as §1

[5] = tested on: Staphylococcus aureus 447; assay: broth micro-dilution MIC; format: cell-based
Protocol: as §1

[6] = tested on: Staphylococcus aureus 489; assay: broth micro-dilution MIC; format: cell-based
Protocol: as §1

[7] = tested on: Staphylococcus aureus 491; assay: broth micro-dilution MIC; format: cell-based
Protocol: as §1

[8] = tested on: Staphylococcus aureus SA1199; assay: broth micro-dilution MIC; format: cell-based
Protocol: as §1

[9] = tested on: Staphylococcus aureus X400; assay: broth micro-dilution MIC; format: cell-based
Protocol: as §1

[10] = tested on: Staphylococcus aureus X778; assay: broth micro-dilution MIC; format: cell-based
Protocol: as §1

[11] = tested on: Streptococcus pyogenes C203; assay: broth micro-dilution MIC; format: cell-based
Protocol: as §1

Entercoccus faecium 180 = assay: broth micro-dilution MIC; format: cell-based; conditions: Entercoccus faecium 180
Protocol: (§2) The formula I compounds have in vitro and in vivo activity against Gram-positive pathogenic bacteria. The MIC's were determined using a standard broth micro-dilution assay.

Entercoccus faecium 2041 = assay: broth micro-dilution MIC; format: cell-based; conditions: Entercoccus faecium 2041
Protocol: as §2

[12] = tested on: Enterococcus gallinarum 245; assay: broth micro-dilution MIC; format: cell-based; conditions: Enterococcus gallinarum 245
Protocol: as §2

[13] = tested on: Staphylococcus epidermidis 270; assay: broth micro-dilution MIC; format: cell-based
Protocol: as §2

[14] = tested on: Staphylococcus haemolyticus 105; assay: broth micro-dilution MIC; format: cell-based
Protocol: as §2

[15] = tested on: Staphylococcus haemolyticus 415; assay: broth micro-dilution MIC; format: cell-based
Protocol: as §2

[16] = tested on: Streptococcus pneumoniae P1; assay: broth micro-dilution MIC; format: cell-based
Protocol: as §2

[17] = tested on: vancomycin-resistant enterococci; assay: broth micro-dilution, mean geometric MIC; format: cell-based, Enterococcus faecium and Enterococcus faecalis; conditions: enterococci, 24-hour incubation
[18] = tested on: vancomycin-susceptible enterococci; assay: broth micro-dilution, mean geometric MIC; format: cell-based, Enterococcus faecium and Enterococcus faecalis; conditions: enterococci, 24-hour incubation
[19] = tested on: Staphylococcus aureus SA1199A; assay: broth micro-dilution MIC; format: cell-based
Protocol: as §1

SMILES	MIC [1] [µg/mL]	MIC [2] [µg/mL]	MIC [3] [µg/mL]	MIC (Entercoccus faecium 276) [µg/mL]	MIC [4] [µg/mL]	MIC [5] [µg/mL]	MIC [6] [µg/mL]	MIC [7] [µg/mL]	MIC [8] [µg/mL]	MIC [9] [µg/mL]	MIC [10] [µg/mL]	MIC [11] [µg/mL]	MIC (Entercoccus faecium 2041) [µg/mL]	MIC [12] [µg/mL]	MIC [13] [µg/mL]	MIC [14] [µg/mL]	MIC [15] [µg/mL]	MIC [16] [µg/mL]	mean geometric MIC, Vancomycin Resistant Strains [17] [µg/mL]	mean geometric MIC, Vancomycin Sensitive Strains [18] [µg/mL]	other results
CNC(CC(C)C)C(=O)NC1C(=O)NC(CC(N)=O)C(=O)NC2C(=O)NC3C(=O)NC(C(=O)NC(C(=O)O)c4cc(O)cc(O)c4-c4cc3ccc4O)C(OC3CC(C)(N)C(O)C(C)O3)c3ccc(c(Cl)c3)Oc3cc2cc(c3OC2OC(CO)C(O)C(O)C2OC2CC(C)(NCc3ccc(OC)c4ccccc34)C(O)C(C)O2)Oc2ccc(cc2Cl)C1O (stereo not shown) [Compound 15]	0.5 (≈ 0.284 µM)	0.25 (≈ 0.142 µM)	≤ 0.06	≤ 0.06	1 (≈ 0.567 µM)	2 (≈ 1.13 µM)	≤ 0.06	0.25 (≈ 0.142 µM)	0.25 (≈ 0.142 µM)	0.25 (≈ 0.142 µM)	0.25 (≈ 0.142 µM)	≤ 0.06	≤ 0.06	≤ 0.06	1 (≈ 0.567 µM)	0.5 (≈ 0.284 µM)	2 (≈ 1.13 µM)	≤ 0.06	6.7	0.14	MIC (Entercoccus faecium 180): 0.5 µg/mL (≈ 0.284 µM)
CNC(CC(C)C)C(=O)NC1C(=O)NC(CC(N)=O)C(=O)NC2C(=O)NC3C(=O)NC(C(=O)NC(C(=O)O)c4cc(O)cc(O)c4-c4cc3ccc4O)C(OC3CC(C)(N)C(O)C(C)O3)c3ccc(c(Cl)c3)Oc3cc2cc(c3OC2OC(CO)C(O)C(O)C2OC2CC(C)(NCc3ccc4c(c3O)Cc3ccccc3-4)C(O)C(C)O2)Oc2ccc(cc2Cl)C1O (stereo not shown) [Compound 103]	1 (≈ 0.56 µM)	2 (≈ 1.12 µM)	≤ 0.06	0.25 (≈ 0.14 µM)	0.5 (≈ 0.28 µM)	1 (≈ 0.56 µM)	≤ 0.06	1 (≈ 0.56 µM)	1 (≈ 0.56 µM)	≤ 0.06	0.5 (≈ 0.28 µM)	≤ 0.06	≤ 0.06	8 (≈ 4.48 µM)	1 (≈ 0.56 µM)	4 (≈ 2.24 µM)	8 (≈ 4.48 µM)	≤ 0.06	4.0	0.33	MIC [19]: ≤ 0.06 µg/mL
CNC(CC(C)C)C(=O)NC1C(=O)NC(CC(N)=O)C(=O)NC2C(=O)NC3C(=O)NC(C(=O)NC(C(=O)O)c4cc(O)cc(O)c4-c4cc3ccc4O)C(OC3CC(C)(N)C(O)C(C)O3)c3ccc(c(Cl)c3)Oc3cc2cc(c3OC2OC(CO)C(O)C(O)C2OC2CC(C)(NCc3cccc(OCc4ccc5ccccc5n4)c3)C(O)C(C)O2)Oc2ccc(cc2Cl)C1O (stereo not shown) [Compound 125]	1 (≈ 0.544 µM)	2 (≈ 1.09 µM)	≤ 0.06	2 (≈ 1.09 µM)	4 (≈ 2.17 µM)	2 (≈ 1.09 µM)	2 (≈ 1.09 µM)	1 (≈ 0.544 µM)	0.5 (≈ 0.272 µM)	1 (≈ 0.544 µM)	2 (≈ 1.09 µM)	≤ 0.06	≤ 0.06	12 (≈ 6.52 µM)	1 (≈ 0.544 µM)	4 (≈ 2.17 µM)	2 (≈ 1.09 µM)	≤ 0.06	3.4	0.14	MIC (Entercoccus faecium 180): 1 µg/mL (≈ 0.544 µM)
CNC(CC(C)C)C(=O)NC1C(=O)NC(CC(N)=O)C(=O)NC2C(=O)NC3C(=O)NC(C(=O)NC(C(=O)O)c4cc(O)cc(O)c4-c4cc3ccc4O)C(OC3CC(C)(N)C(O)C(C)O3)c3ccc(c(Cl)c3)Oc3cc2cc(c3OC2OC(CO)C(O)C(O)C2OC2CC(C)(NCc3ccc(OCCC4CCCCC4)cc3)C(O)C(C)O2)Oc2ccc(cc2Cl)C1O (stereo not shown) [Compound 127]	2 (≈ 1.11 µM)	2 (≈ 1.11 µM)	≤ 0.06	≤ 0.06	1 (≈ 0.553 µM)	2 (≈ 1.11 µM)	2 (≈ 1.11 µM)	1 (≈ 0.553 µM)	2 (≈ 1.11 µM)	2 (≈ 1.11 µM)	1 (≈ 0.553 µM)	≤ 0.06	≤ 0.06	4 (≈ 2.21 µM)	≤ 0.06	2 (≈ 1.11 µM)	4 (≈ 2.21 µM)	≤ 0.06	1.2	0.33	MIC (Entercoccus faecium 180): ≤ 0.06 µg/mL
CNC(CC(C)C)C(=O)NC1C(=O)NC(CC(N)=O)C(=O)NC2C(=O)NC3C(=O)NC(C(=O)NC(C(=O)O)c4cc(O)cc(O)c4-c4cc3ccc4O)C(OC3CC(C)(N)C(O)C(C)O3)c3ccc(c(Cl)c3)Oc3cc2cc(c3OC2OC(CO)C(O)C(O)C2OC2CC(C)(NCc3cccc(Oc4ccc(C(F)(F)F)cc4)c3)C(O)C(C)O2)Oc2ccc(cc2Cl)C1O (stereo not shown) [Compound 132]	2 (≈ 1.09 µM)	2 (≈ 1.09 µM)	≤ 0.06	1 (≈ 0.543 µM)	1 (≈ 0.543 µM)	2 (≈ 1.09 µM)	1 (≈ 0.543 µM)	0.5 (≈ 0.271 µM)	1 (≈ 0.543 µM)	1 (≈ 0.543 µM)	2 (≈ 1.09 µM)	≤ 0.06	1 (≈ 0.543 µM)	2 (≈ 1.09 µM)	2 (≈ 1.09 µM)	1 (≈ 0.543 µM)	2 (≈ 1.09 µM)	≤ 0.06	1.2	0.048	–
CNC(CC(C)C)C(=O)NC1C(=O)NC(CC(N)=O)C(=O)NC2C(=O)NC3C(=O)NC(C(=O)NC(C(=O)O)c4cc(O)cc(O)c4-c4cc3ccc4O)C(OC3CC(C)(N)C(O)C(C)O3)c3ccc(c(Cl)c3)Oc3cc2cc(c3OC2OC(CO)C(O)C(O)C2OC2CC(C)(NCc3ccc(OCCOC(C)(C)C)cc3)C(O)C(C)O2)Oc2ccc(cc2Cl)C1O (stereo not shown) [Compound 154]	0.25 (≈ 0.139 µM)	0.25 (≈ 0.139 µM)	≤ 0.06	0.5 (≈ 0.278 µM)	2 (≈ 1.11 µM)	2 (≈ 1.11 µM)	1 (≈ 0.556 µM)	0.5 (≈ 0.278 µM)	2 (≈ 1.11 µM)	2 (≈ 1.11 µM)	0.5 (≈ 0.278 µM)	≤ 0.06	–	4 (≈ 2.22 µM)	0.5 (≈ 0.278 µM)	4 (≈ 2.22 µM)	4 (≈ 2.22 µM)	≤ 0.06	2.8	0.072	MIC (Entercoccus faecium 180): 1 µg/mL (≈ 0.556 µM)
